Measurements from patent publication US7776904B2, “Azabicyclo [3.1.0] hexylphenyl derivatives as modulators of dopamine D3 receptors” (Glaxo Group Limited, priority 2005, dated 2010).

Target: T1, dopamine D3 receptor (Homo sapiens, UniProt P35462)
T1 construct: expressed in transfected cells; membranes prepared from them
Test: GTPγS scintillation proximity assay (GTPγS-SPA), CHO_D3 cell membranes
Format: biochemical
Conditions: Enantiomer 2 compared with Enantiomer 1 of Example 1
Description: Functional potency and intrinsic activity of compounds of this invention can be measured by the following GTPγS scintillation proximity assay (GTPγS-SPA). Cells used in the study are Chinese Hamster Ovary (CHO) Cells.
Compounds may be tested according to two alternative protocols:
a) Cell membranes are prepared as follows. Cell pellets are resuspended in 10 volumes of 50 mM HEPES, 1 mM EDTA pH 7.4, using KOH. On the day the following proteases are added to the buffer just prior to giving the homogenisation buffer.
The cells are homogenised by 2×15 second bursts in a 1 litre Glass Waring blender in a class two biohazard cabinet. The resulting suspension is spun at 500 g for 20 mins (Beckman T21 centrifuge: 1550 rpm). The supernatant is withdrawn with a 25 ml pipette, aliquotted into pre-chilled centrifuge tubes and spun at 48,000 g to pellet membrane fragments (Beckman T1270: 23,000 rpm for 30 mins). The final 48,000 g pellet is resuspended in Homogenisation Buffer, (4× the volume of the original cell pellet). […] Protein content in the membrane preparations is evaluated with the Bradford protein assay.
The final top concentration of test drug is 3 uM in the assay and 11 points serial dilution curves 1:4 in 100% DMSO are carried out using a Biomek FX. […] Assay plates are counted on a Viewlux, 613/55 filter, for 5 min., between 2-6 hours after the final addition. […]

T1 sequence (P35462 whole entry, species assumed): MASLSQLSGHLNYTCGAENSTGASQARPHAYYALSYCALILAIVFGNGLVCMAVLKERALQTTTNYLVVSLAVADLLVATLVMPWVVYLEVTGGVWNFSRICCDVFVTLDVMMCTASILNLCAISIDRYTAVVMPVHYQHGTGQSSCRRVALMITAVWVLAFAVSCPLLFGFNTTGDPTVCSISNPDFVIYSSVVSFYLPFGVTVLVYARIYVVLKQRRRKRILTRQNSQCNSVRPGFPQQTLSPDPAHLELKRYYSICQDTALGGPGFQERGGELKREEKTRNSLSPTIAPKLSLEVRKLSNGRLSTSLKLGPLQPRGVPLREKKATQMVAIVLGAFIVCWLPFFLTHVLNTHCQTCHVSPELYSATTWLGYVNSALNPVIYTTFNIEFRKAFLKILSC

`CC(C)c1ccc(S(=O)(=O)Nc2ccc(C34CNCC3C4)cc2)cc1.Cl` (single isomer, unassigned; enantiomer 2) [Enantiomer 2, N-{4-[(1R,5R or 1S,5R)-3-azabicyclo[3.1.0]hex-1-yl]phenyl}-4-(1-methylethyl)benzenesulfonamide hydrochloride] was tested, and the “fpki (D3) difference, higher than Enantiomer 1” value was > 1 log-unit.
